The text below walks through data of patent US7605272B2, “IGF-1R inhibitor” (Kyowa Hakko Kirin Co., Ltd., priority 2005, dated 2009).

For one experiment, the system named is NCI-H929. Briefly: Cytostatic activity on human multiple myeloma cell line NCI-H929 (WST-1). The experiment is classed as cell-based. The conditions noted are these: for inhibition at 10 µM / inhibition at 1 µM: Homo sapiens, NCI-H929, 72 h; for inhibition at 10 µM: 10 μmol/L, read-out: cytostatic rate (%) H929 (10 μmol/L); for inhibition at 1 µM: read-out: cytostatic rate (%) H929 (1 μmol/L). An outline of the steps:
(§1)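 Cytostatic rate is 100 minus % growth relative to DMSO-only wells (100%) and blank wells (0%), read by WST-1 absorbance at 450/690 nm after 2 h. Compound at 1 or 10 μmol/L final was applied for 72 h at 37 °C to cells seeded 24 h earlier.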
For orientation: Tetrazolium assays rely on reduction of a dye to a coloured formazan, in cell work by metabolically active cells.

For another experiment, the system named is KMS-11. Briefly: Cytostatic activity on human multiple myeloma cell line KMS-11 (WST-1). The experiment is classed as cell-based. The conditions noted are these: for inhibition at 10 µM / inhibition at 1 µM: Homo sapiens, KMS-11, 72 h; for inhibition at 10 µM: 10 μmol/L, read-out: cytostatic rate (%) KMS-11 (10 μmol/L); for inhibition at 1 µM: read-out: cytostatic rate (%) KMS-11 (1 μmol/L). An outline of the steps:
as §1

The target of the next experiment is T1, IGF-1R (Homo sapiens, UniProt P08069).
T1 construct: purchased Upstate Co. 14-465
Briefly: IGF-1R inhibitory activity (kinase reaction, time-resolved fluoroimmunoassay). The experiment is classed as biochemical. To be noted: test compound 10 μmol/L. The gist of the method: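 Compounds were tested at a single 10 μmol/L concentration. Each was incubated with recombinant IGF-1R (200 μg/L), 10 mmol/L ATP, MgCl2/MnCl2 and Na3VO4 (pH 7.5) on immobilized poly(Glu-Tyr) peptide for 30 min at 24° C. Eu-anti-phosphotyrosine time-resolved fluorescence (340/615 nm) gave relative activity against no-compound and no-enzyme wells, reported as % inhibition.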

Where [1] appears, read: IGF-1R active recombinant enzyme.
[2] abbreviates: NCI-H929 cells, test compound 1 μmol/L, WST-1.
Setting [3] is: KMS-11 cells, test compound 1 μmol/L, WST-1.

Structures can show the parent of a compound that is named as a salt. Where two headings read alike, the source gives them in different places.

T1 sequence (P08069 959-1367 limits assumed): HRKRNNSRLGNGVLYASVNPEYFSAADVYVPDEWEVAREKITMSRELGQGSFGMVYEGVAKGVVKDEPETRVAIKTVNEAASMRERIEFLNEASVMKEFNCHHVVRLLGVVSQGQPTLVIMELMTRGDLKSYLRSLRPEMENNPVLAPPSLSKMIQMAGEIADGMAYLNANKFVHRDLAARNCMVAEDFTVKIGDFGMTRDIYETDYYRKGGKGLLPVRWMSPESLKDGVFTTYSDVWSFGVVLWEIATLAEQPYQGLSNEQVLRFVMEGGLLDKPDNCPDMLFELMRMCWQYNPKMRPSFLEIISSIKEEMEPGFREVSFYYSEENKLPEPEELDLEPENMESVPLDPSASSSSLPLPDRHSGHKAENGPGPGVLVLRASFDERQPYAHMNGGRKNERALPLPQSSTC

Take `O=C(CCc1cccs1)Nc1ccccc1/C=C/c1n[nH]c2ccccc12` [Compound 39, (E)-N-{2-[2-(1H-indazol-3-yl)vinyl]phenyl}-3-(thiophen-2-yl)propionamide]: the inhibition at 10 µM came to 68.8% in the experiment on NCI-H929 (72 hours), 91% in the experiment on KMS-11 (72 hours) and 59.1% on IGF-1R (setting [1]).

For the molecule `Cc1ccsc1C(=O)Nc1cc(C(=O)NC2CC2)ccc1/C=C/c1n[nH]c2ccccc12` [Compound 118, (E)-N-{5-(N-cyclopropylcarbamoyl)-2-[2-(1H-indazol-3-yl)vinyl]phenyl}-3-methylthiophene-2-carboxamide], the inhibition at 10 µM was determined as 116% with NCI-H929 (72 hours), 114% in the experiment with KMS-11 (72 hours) and 102% against IGF-1R.

With `Nc1cccc2c1C(=O)N(c1cc(C(=O)N3CCC(N4CCOCC4)CC3)ccc1/C=C/c1n[nH]c3ccccc13)C2=O` [Compound 317, (E)-4-amino-2-{2-[2-(1H-indazol-3-yl)vinyl]-5-[4-(morpholin-4-yl)piperidin-1-ylcarbonyl]phenyl}isoindole-1,3-dione], the inhibition at 1 µM in the experiment with NCI-H929 (setting [2]) turned out to be 114%; in the experiment with KMS-11 (setting [3]), 105%. In addition, the inhibition at 10 µM at IGF-1R (setting [1]) is 103%.

Consider `CCNC(=O)Nc1ccccc1/C=C/c1n[nH]c2ccccc12` [Compound 21, (E)-1-ethyl-3-{2-[2-(1H-indazol-3-yl)vinyl]phenyl}urea], for which the results for the inhibition at 10 µM in the experiment on NCI-H929 (72 hours), in the experiment with KMS-11 (72 hours) and at IGF-1R (setting [1]) were 114%, 94% and 88.2%, respectively.

Consider `Cc1ccsc1C(=O)Nc1ccc(N2CCN(C)CC2)cc1/C=C/c1n[nH]c2ccccc12` [Compound 228, (E)-N-{2-[2-(1H-indazol-3-yl)vinyl]-4-(4-methylpiperazin-1-yl)phenyl}-3-methylthiophene-2-carboxamide], for which the inhibition at 1 µM in the experiment with NCI-H929 (1 μmol/L, 72 hours) is 114%; in the experiment with KMS-11 (1 μmol/L, 72 hours) it was 58%. Also, the inhibition at 10 µM on IGF-1R (setting [1]) is 100%.

On to `Cc1ccsc1C(=O)Nc1cc(CN2CCC(S(C)(=O)=O)CC2)ccc1/C=C/c1n[nH]c2ccccc12` [Compound 235, (E)-N-{2-[2-(1H-indazol-3-yl)vinyl]-5-(4-methanesulfonylpiperidin-1-ylmethyl)phenyl}-3-methylthiophene-2-carboxamide], for which the inhibition at 1 µM in the experiment on NCI-H929 (1 μmol/L, 72 hours) amounted to 115%; in the experiment with KMS-11 (1 μmol/L, 72 hours), 109%. Besides, on IGF-1R (setting [1]), the inhibition at 10 µM worked out at 98.3%.

As for `Cc1ccsc1C(=O)Nc1cc(C(=O)N2CCN(C(=O)[C@@H]3CCCN3)CC2)ccc1/C=C/c1n[nH]c2ccccc12` [Compound 231, (S)-(E)-N-{2-[2-(1H-indazol-3-yl)vinyl]-5-[4-(pyrrolidin-2-ylcarbonyl)piperazin-1-ylcarbonyl]phenyl}-3-methylthiophene-2-carboxamide], the inhibition at 1 µM with NCI-H929 (1 μmol/L, 72 hours) amounted to 122%; in the experiment on KMS-11 (1 μmol/L, 72 hours), 80.2%. Further, on IGF-1R (setting [1]), the inhibition at 10 µM is 99.7%.

As to `COCCOc1ccc(/C=C/c2n[nH]c3ccccc23)c(NC(=O)c2sccc2C)c1` [Compound 275, (E)-N-{2-[2-(1H-indazol-3-yl)vinyl]-5-(2-methoxyethoxy)phenyl}-3-methylthiophene-2-carboxamide], the inhibition at 1 µM with NCI-H929 (1 μmol/L, 72 hours) came out at 118%; in the experiment on KMS-11 (1 μmol/L, 72 hours) it was 116%. Moreover, the inhibition at 10 µM on IGF-1R (setting [1]) was found to be 98.6%.

In the case of `O=C(Nc1ccccc1/C=C/c1n[nH]c2ccccc12)N1CCOCC1` [Compound 35, (E)-N-{2-[2-(1H-indazol-3-yl)vinyl]phenyl}morpholine-4-carboxamide], the figures for the inhibition at 10 µM in the experiment with NCI-H929 (72 hours), in the experiment with KMS-11 (72 hours) and on IGF-1R (setting [1]) were 110%, 125% and 98.4%, respectively.

Turning to `Cn1c(C(=O)Nc2ccccc2/C=C/c2n[nH]c3ccccc23)cc2ccccc21` [Compound 55, (E)-N-{2-[2-(1H-indazol-3-yl)vinyl]phenyl}-1-methyl-1H-indole-2-carboxamide], the inhibition at 10 µM stood at 115% with NCI-H929 (72 hours), 132% in the experiment on KMS-11 (72 hours) and 98.9% at IGF-1R (setting [1]).

Turning to `CCN(CC)CCCOc1cc(NC(=O)c2sccc2C)c(/C=C/c2n[nH]c3ccccc23)cc1OC` [Compound 300, (E)-N-{5-[3-(diethylamino)propyloxy]-2-[2-(1H-indazol-3-yl)vinyl]-4-methoxyphenyl}-3-methylthiophene-2-carboxamide], the inhibition at 1 µM in the experiment with NCI-H929 (1 μmol/L, 72 hours) was determined as 119%; with KMS-11 (1 μmol/L, 72 hours), 116%. The inhibition at 10 µM on IGF-1R (setting [1]) worked out at 97.2%.

Take `N#Cc1ccccc1/C=C/c1n[nH]c2ccccc12` [Compound 136, (E)-2-[2-(1H-indazol-3-yl)vinyl]benzonitrile]: the inhibition at 10 µM in the experiment with NCI-H929 (72 hours) was found to be 87.7%; with KMS-11 (72 hours), 38.4%; on IGF-1R (setting [1]), 85.3%.

Turning to `COc1cscc1C(=O)Nc1ccccc1/C=C/c1n[nH]c2ccccc12` [Compound 53, (E)-N-{2-[2-(1H-indazol-3-yl)vinyl]phenyl}-4-methoxythiophene-3-carboxamide], the inhibition at 10 µM in the experiment with NCI-H929 (72 hours) amounted to 114%; with KMS-11 (72 hours), 126%; at IGF-1R (setting [1]) it was 98.9%.

Regarding `Cc1ccsc1C(=O)Nc1cc(CN2CCN(CCC#N)CC2)ccc1/C=C/c1n[nH]c2ccccc12` [Compound 268, (E)-N-{5-[4-(2-cyanoethyl)piperazin-1-ylmethyl]-2-[2-(1H-indazol-3-yl)vinyl]phenyl}-3-methylthiophene-2-carboxamide], the inhibition at 1 µM in the experiment with NCI-H929 (1 μmol/L, 72 hours) is 118%; in the experiment on KMS-11 (1 μmol/L, 72 hours) it was 129%. The inhibition at 10 µM at IGF-1R (setting [1]) came out at 101%.

Take `Nc1ccc(C(=O)Nc2cc3c(cc2/C=C/c2n[nH]c4ccccc24)OCO3)s1` [Compound 132, (E)-5-amino-N-{6-[2-(1H-indazol-3-yl)vinyl]benzo[1,3]dioxol-5-yl}thiophene-2-carboxamide]: the inhibition at 10 µM in the experiment with NCI-H929 (72 hours) came to 108%; in the experiment with KMS-11 (72 hours), 112%; against IGF-1R, 98%.

For `Cn1cc([N+](=O)[O-])cc1C(=O)Nc1ccccc1/C=C/c1n[nH]c2ccccc12` [Compound 52, (E)-N-{2-[2-(1H-indazol-3-yl)vinyl]phenyl}-1-methyl-4-nitro-1H-pyrrole-2-carboxamide], the inhibition at 10 µM was 119% with NCI-H929 (72 hours), 128% in the experiment with KMS-11 (72 hours) and 98.5% at IGF-1R (setting [1]).

Turning to `Cc1cc([N+](=O)[O-])sc1C(=O)Nc1ccccc1/C=C/c1n[nH]c2ccccc12` [Compound 66, (E)-N-{2-[2-(1H-indazol-3-yl)vinyl]phenyl}-3-methyl-5-nitrothiophene-2-carboxamide], the figures for the inhibition at 10 µM with NCI-H929 (72 hours), in the experiment with KMS-11 (72 hours) and at IGF-1R (setting [1]) were 111%, 114% and 93.6%, respectively.

In the case of `COc1c(OCCCN2CCC(CO)CC2)ccc(/C=C/c2n[nH]c3ccccc23)c1NC(=O)c1sccc1C` [Compound 350, (E)-N-(3-{3-[4-(hydroxymethyl)piperidin-1-yl]propoxy}-6-[2-(1H-indazol-3-yl)vinyl]-2-methoxyphenyl)-3-methylthiophene-2-carboxamide], the inhibition at 1 µM in the experiment on NCI-H929 (1 μmol/L, 72 hours) was found to be 117%; in the experiment on KMS-11 (1 μmol/L, 72 hours), 117%. For the same molecule, the inhibition at 10 µM on IGF-1R (setting [1]) is 111%.

As to `Cc1ccsc1C(=O)Nc1cc(N2CCNCC2)ccc1/C=C/c1n[nH]c2ccccc12` [Compound 274, (E)-N-{2-[2-(1H-indazol-3-yl)vinyl]-5-piperazin-1-ylphenyl}-3-methylthiophene-2-carboxamide], the inhibition at 1 µM with NCI-H929 (1 μmol/L, 72 hours) was determined as 114%; with KMS-11 (1 μmol/L, 72 hours), 108%. The inhibition at 10 µM on IGF-1R (setting [1]) worked out at 104%.

As for `COc1c(OC(=O)CC(=O)N2CC[C@@H](O)C2)ccc(/C=C/c2n[nH]c3ccccc23)c1NC(=O)c1sccc1C` [Compound 343, (E)-N—(R)-{6-[2-(1H-indazol-3-yl)vinyl]-2-methoxy-3-[(3-hydroxypyrrolidine-1-ylcarbonyl)acetyloxy]phenyl}-3-methylthiophene-2-carboxamide], the “cytostatic rate (%) H929 (1 μmol/L)” value in the experiment on NCI-H929 (setting [2]) was 127.5%. Also, the “cytostatic rate (%) KMS-11 (1 μmol/L)” value in the experiment with KMS-11 (setting [3]) is 79%. Also, the “inhibitory activity (%) at 10 μmol/L” value on IGF-1R (setting [1]) is given as 98.4%.

Take `Cc1ccsc1C(=O)Nc1cc(CN2CCOCC2)ccc1/C=C/c1n[nH]c2ccccc12` [Compound 224, (E)-N-{2-[2-(1H-indazol-3-yl)vinyl]-5-(morpholin-4-ylmethyl)phenyl}-3-methylthiophene-2-carboxamide hydrochloride]: the inhibition at 1 µM was found to be 119% in the experiment with NCI-H929 (1 μmol/L, 72 hours) and 119% in the experiment on KMS-11 (1 μmol/L, 72 hours). Moreover, the inhibition at 10 µM on IGF-1R (setting [1]) is 100%.

With `Cc1ccsc1C(=O)Nc1cc(CN2CCN(C=O)CC2)ccc1/C=C/c1n[nH]c2ccccc12` [Compound 270, (E)-N-{5-(4-formylpiperazin-1-ylmethyl)-2-[2-(1H-indazol-3-yl)vinyl]phenyl}-3-methylthiophene-2-carboxamide], the inhibition at 1 µM amounted to 121% in the experiment with NCI-H929 (1 μmol/L, 72 hours) and 129% in the experiment on KMS-11 (1 μmol/L, 72 hours). The inhibition at 10 µM on IGF-1R (setting [1]) worked out at 100%.

`Cc1ccsc1C(=O)Nc1cc(N(C)C)ccc1/C=C/c1n[nH]c2ccccc12` [Compound 105, (E)-N-{5-dimethylamino-2-[2-(1H-indazol-3-yl)vinyl]phenyl}-3-methylthiophene-2-carboxamide]: the figures for the inhibition at 10 µM in the experiment with NCI-H929 (72 hours), in the experiment on KMS-11 (72 hours) and on IGF-1R were 120%, 120% and 94.8%, respectively.
